# Values of other authors, collected in US20050070514A1, “Therapies for treating respiratory diseases” (priority 2001, published 2005).
# Conditions: developed as an antidepressant
structure (smiles),measurement,value
COc1ccc(C2CNC(=O)C2)cc1OC1CCCC1 (stereo not shown) [rolipram],side effects in clinical studies,"has psychotropic activity and produces gastrointestinal effects, e.g., pyrosis, nausea and emesis"
